The results in this text go back to ChEMBL document CHEMBL1144808 (J Med Chem, 2008).

The test system of data set [1] is NCI-H460. The data set is described as follows: Cytotoxicity against human H460 cells under normoxic condition after 2 hrs by Alamar blue staining assay. To be noted: NCI-H460, 2 h. The format is functional, cell-based.
Data set [2] has as its system HT-29. The data set is described as follows: Ratio of IC50 for human HT29 cells under normoxic condition to hypoxic condition by clonogenic assay. The format is functional.
The test system of data set [3] is NCI-H460. The data set is described as follows: Cytotoxicity against human H460 cells under normoxic condition after 2 hrs by clonogenic assay. To be noted: NCI-H460, 2 h. The format is functional.
The subject of data set [4] is NCI-H460. The data set can be described thus: Cytotoxicity against human H460 cells under hypoxic condition after 2 hrs by clonogenic assay. The format is functional. To be noted: NCI-H460, 2 h.
The test system of data set [5] is NCI-H460. The data set can be described thus: Ratio of IC50 for human H460 cells under normoxic condition to hypoxic condition by clonogenic assay. In kind it is functional.
Data set [6] deals with NCI-H460. The data set is described as follows: Cytotoxicity against human H460 cells under hypoxic condition after 2 hrs by Alamar blue staining assay. The format is functional, cell-based. To be noted: NCI-H460, 2 h. Background: Alamar Blue is a resazurin reagent that responds to reducing activity.
In data set [7] the test system is HT-29. The data set is described as follows: Cytotoxicity against human HT29 cells under normoxic condition after 2 hrs by clonogenic assay. The format is functional. Particulars: HT-29, 2 h.
Data set [8] is described as follows: Metabolic stability in mouse liver microsomes at 5 uM after 30 mins. In kind it is ADME, Microsome. To be noted: read-out: Stability. For orientation: Microsomes from liver hold many membrane-bound enzymes, among them those of drug oxidation.
Data set [9] is described as follows: Toxicity against human MIAPaCa2-RFP cells xenografted mouse. In kind it is organism-based. Background: In xenograft studies the graft and the host belong to different species.
Data set [10] is described as follows: Aqueous solubility at 100 mg at pH 7.4. The format is physicochemical.
Data set [11] has as its system HT-29. The data set can be described thus: Cytotoxicity against human HT29 cells under hypoxic condition after 2 hrs by clonogenic assay. The format is functional. Particulars: HT-29, 2 h.
In data set [12] the test system is NCI-H460. The data set is described as follows: Ratio of IC50 for human H460 cells under normoxic condition to hypoxic condition by Alamar blue staining assay. The format is functional.
Data set [13] relates to Mus musculus. The data set can be described thus: Toxicity against human MIAPaCa2 cells xenografted mouse assessed as survival time at 6 mg/kg, ip administered once daily for 5 days a week for 15 days. Details: dose 6 mg/kg, route intraperitoneal. To be noted: in vivo. In kind it is organism-based, MIA PaCa-2.
The subject of data set [14] is MIA PaCa-2. The data set can be described thus: Antitumor activity against human MIAPaCa2 cells xenografted mouse assessed as tumor growth inhibition at 30 mg/kg, ip administered once daily for 5 days a week for 15 days. In kind it is functional. Particulars: MIA PaCa-2, ip, route intraperitoneal.
For data set [15], the system named is Mus musculus. The data set is described as follows: Toxicity against human MIAPaCa2 cells xenografted mouse assessed as survival time at 30 mg/kg, ip administered daily once for 5 days a week for 15 days. Particulars: in vivo. In kind it is organism-based, MIA PaCa-2. Details: dose 30 mg/kg, route intraperitoneal.
Data set [16] has as its system MIA PaCa-2. The data set is described as follows: Antitumor activity against human MIAPaCa2 cells xenografted mouse assessed as tumor growth inhibition at 200 mg/kg, ip administered weekly once for 3 weeks. The format is functional. To be noted: MIA PaCa-2, ip, 504 h, route intraperitoneal.
The test system of data set [17] is Mus musculus. The data set is described as follows: Toxicity against human MIAPaCa2 cells xenografted mouse assessed as survival time at 200 mg/kg, ip administered weekly once for 3 weeks. In kind it is organism-based, MIA PaCa-2. Details: dose 200 mg/kg, route intraperitoneal. Particulars: in vivo, 504 h.

Values after ≈ are worked out from the molar mass of the structure shown.

`O=[N+]([O-])c1ccc(COP(=O)(NCCBr)NCCBr)o1`: the IC50 (commonly the concentration that inhibits the measured activity by half) in data set [1] was 14 µM; in data set [6], 0.083 µM. For the same compound, the figures for the “Ratio IC50” value in data set [2], in data set [5] and in data set [12] were 30, 40 and 170, respectively. The IC90 (in general, the point of the concentration-response curve where the effect stands at 90%) in data set [3] was determined as 2 µM; in data set [4], 0.05 µM; in data set [7], 2 µM; in data set [11], 0.06 µM. Moreover, the remaining at 0.5 h, 5 µM in [8] was determined as 79%. The MTD in [9] was 20 mg/kg. Further, the concentration in solution in data set [10] (solubility) was 4300 µg/mL (≈ 9.88 mM). In data set [13], the Survival was 27 days.
As to `Cn1c(COP(=O)(NCCCl)NCCCl)cnc1[N+](=O)[O-]`, the results for the 50% inhibitory concentration (IC50) in data set [1] and in [6] were 88 µM and 0.21 µM, respectively. In data set [8], the remaining at 0.5 h, 5 µM came out at 90%. Also, the “Ratio IC50” value in data set [12] is 420.
The corresponding values for `Cn1c([N+](=O)[O-])cnc1COP(=O)(NCCBr)NCCBr` are 46 µM, 5.7 µM, 92% and 8.
The like results for `CN(CCCl)P(=O)(OCc1cnc([N+](=O)[O-])n1C)N(C)CCCl` were, in that order, 14 µM, 0.11 µM, 15% and 130.
The corresponding values for `Cn1c(COP(=O)(N(CCCl)CCCl)N(CCCl)CCCl)cnc1[N+](=O)[O-]` are 27 µM, 0.12 µM, 0% and 230.
In the case of `Cn1c(COP(=O)(NCCBr)NCCBr)cnc1[N+](=O)[O-]` [EVOFOSFAMIDE], the IC50 in data set [1] is 5.1 µM; in data set [6], 0.019 µM. Also, the “Ratio IC50” value turned out to be 200 in data set [2], 300 in [5] and 270 in [12]. Moreover, the IC90 in [3] worked out at 30 µM; in data set [4] it was 0.1 µM; in data set [7], 40 µM; in [11], 0.2 µM. The inhibition in vivo (usually how much of the control response was suppressed) at 30 mg/kg in data set [14] was determined as 41%. The Survival in [15] came to 28 days. Moreover, the remaining at 0.5 h, 5 µM in data set [8] is 92%. Besides, in data set [9], the MTD was 100 mg/kg. Besides, the concentration in solution in data set [10] (solubility) was 5900 µg/mL (≈ 13.1 mM).
`Nc1ccn([C@@H]2O[C@H](CO)[C@@H](O)C2(F)F)c(=O)n1` [GEMCITABINE]: the inhibition in vivo at 200 mg/kg in data set [16] was 82%. Further, the Survival in data set [17] is 42 days.
As to `Nc1n[n+]([O-])c2ccccc2[n+]1[O-]` [TIRAPAZAMINE], the IC50 in data set [1] was above 100 µM; in data set [6], 11 µM. Besides, the “Ratio IC50” value in data set [12] is listed as above 9.
